# Values of other authors in patent publication US20040248979A1, “Method of treating lower urinary tract disorders” (DYNOGEN PHARMACEUTICALS, INC., priority 2003, published 2004).
# What was measured:
# [1] = tested on: α2δ subunits of calcium channels
# [2] = preclinical and clinical studies
compound,measurement,setting,value
"COc1cccc([C@]2(O)CCCC[C@H]2CN(C)C)c1 (racemic) [Tramadol, (+/−)cis-2-[(dimethylamino)methyl]-1-(3-methoxyphenyl) cyclohexanol]",affinity for opioid receptors,opioid receptors,low affinity
"NCC1(CC(=O)O)CCCCC1 [Gabapentin, 1-(aminomethyl) cyclohexaneacetic acid]",binding affinity for calcium channel subunits,[1],high binding affinity
"CC(C)C[C@H](CN)CC(=O)O [Pregabalin, (3S)-3-(aminomethyl)-5-methylhexanoic acid]",binding affinity for calcium channel subunits,[1],even higher binding affinity for certain α2δ subunits of calcium channels than gabapentin
CC(OC(=O)NCC1(CC(=O)O)CCCCC1)OC(=O)C(C)C (centres unmarked) [XP13512],blood levels of gabapentin across oral doses,[2]; broad range of oral doses,dose proportional blood levels of gabapentin
same,absorption from the large intestine,[2],absorbed efficiently from the large intestine
